Measured values published in patent US4889917A, “Peptide” (Agency of Industrial Science Technology, Ministry of …, priority 1987, dated 1989).

Tested on: human antibody to the nicotinic acetylcholine receptor
Test: Adsorption of human anti-nicotinic acetylcholine receptor antibody from myasthenia gravis patient serum; residual antibody in supernatant by Con A method (toxin binding inhibition)
Experimental: In 0.5 ml of serum from a patient of myasthenia gravis, 50 mg of the adsorbent obtained in Referential Example 3(a) (cellulose particles having the peptide immobilized thereon) and not yet subjected to any heat treatment or the adsorbent obtained in Referential Example 3(b) and subjected to a heat treatment was suspended at a temperature of 37° C. for three hours. The resultant suspension was centrifuged to separate a supernatant. The supernatant was tested for the concentration of the human antibody to the nicotinic acetylcholine receptor by the Con A method [Protein, Nucleic Acid and Enzyme, vol. […] To be specific, the specimen was brought into contact sequentially with the nicotinic acetylcholine receptor and a radioisotope-labelled α-bungartoxin. The treated specimen was passed through a column packed with Sepharose having immobilized thereon concanavalin (Con A). By measuring the radioactivity of the column, the amount of the human antibody which was contained in the specimen and which inhibited the union of the α-bungarotoxin with the nicotinic acetylcholine receptor was determined in terms of toxin binding inhibition activity (ratio of decrease of the radioactivity of the column).

NCC(=O)O [Glycine, glycine]
Toxine binding inhibition activity (as E1, adsorbent heat treated at 121° C. for 20 minutes): 45% | Toxine binding inhibition activity (supernatant of 0.5 ml myasthenia gravis serum after 50 mg adsorbent (substance immobilized on cellulose particles), 37° C., three hours, no heat treatment, lower = more antibody adsorbed): 44%
